Results as given in patent US8058243B2, “Method for treating a brain cancer with ifenprodil” (HSC Research and Development Limited Partnership, priority 2006, dated 2011).
Counter-ions that a name gives are not always drawn. Like-named read-outs stand apart in the source and are kept apart here.

System: murine neural precursor cells (neurosphere cultures)
Assay: HTS of LOPAC library against secondary neurosphere cultures, MTT proliferation assay at 3 μM, day 7 (z score, P value)
Assay type: cell-based, mouse
[1] = LOPAC primary screen, neurosphere MTT proliferation, 3 μM, day 7
[2] = yes/no: significantly inhibited neurosphere proliferation in primary screen
[3] = LOPAC library screen, 3 μM, MTT, neurosphere cultures
[4] = primary LOPAC screen, 3 μM, MTT, neurosphere proliferation
[5] = yes/no: significantly inhibited neurosphere proliferation in the primary screen
[6] = LOPAC library screen at 3 μM, secondary neurosphere cultures, MTT
[7] = yes/no: significantly inhibited neurosphere proliferation (P<0.01) in primary screen
[8] = yes/no: significantly inhibited neurosphere proliferation (P<0.01) in the primary screen
[9] = LOPAC library screen, 3 μM, MTT, secondary neurosphere cultures, day 7
[10] = yes = significantly inhibited neurosphere proliferation (P<0.01) in the primary screen
[11] = LOPAC screen, neurosphere MTT proliferation, 3 μM, day 7

Cc1nc2n(c(=O)c1CCN1CCC(c3noc4cc(F)ccc34)CC1)CCCC2 [Risperidone]
Z Score: 1.694
Z score [1]: 1.694
Activity [2]: no

NCCS(=O)(=O)O [Taurine]
Z Score [3]: 0.5328
Z score [4]: 0.533
Activity [5]: no

COc1ccc(Cl)cc1C(=O)NCCc1ccc(S(=O)(=O)NC(=O)NC2CCCCC2)cc1 [Glibenclamide]
Z Score [6]: −0.36
Z score [1]: −0.360
Activity [7]: no

Br.CCCN(CCC)[C@@H]1CCc2cccc(O)c2C1 [R-(+)-8-Hydroxy-DPAT hydrobromide]
Z Score [6]: −0.6916
Z score [1]: −0.692
Activity [8]: no

O=c1[nH]c2ccccc2n1CCCN1CCN(C(c2ccccc2)c2ccccc2)CC1 [Oxatomide]
Z Score [3]: 0.5957
Z score [1]: 0.596
Activity [2]: no

COc1ccc2c(c1)[C@@]13CCCC[C@H]1[C@@H](C2)NCC3.Cl [3-Methoxy-morphanin hydrochloride]
Z Score: −7.714
Z score [1]: −7.714
Activity [8]: yes

COc1ccccc1N1CCN(CCN(C(=O)C2CCCCC2)c2ccccn2)CC1.O=C(O)/C=C\C(=O)O [WAY-100635 maleate]
Z Score: −0.4965
Z score [4]: −0.497
Activity [5]: no

Picrotoxin
Z Score: 0.7771
Z score [1]: 0.777
Activity [2]: no

COc1ccc2[nH]c(I)c(CCNC(C)=O)c2c1 [2-Iodomelatonin]
Z Score: −0.1348
Z score [1]: −0.135
Activity [7]: no

CCCC(C(=O)OCCN(CC)CC)(c1ccccc1)c1ccccc1.Cl [SKF-525A hydrochloride]
Z Score: −1.928
Z score [1]: −1.928
Activity [8]: no

N[C@@H](Cc1ccc(N(CCCl)CCCl)cc1)C(=O)O [Melphalan]
Z Score: −3.907
Z score [1]: −3.907
Activity [8]: yes

O=C(O)c1cccnc1Nc1cccc(C(F)(F)F)c1 [Niflumic acid]
Z Score [9]: −1.958
Z score [1]: −1.958
Activity [10]: no

CN(C(=O)CCCOc1ccc2[nH]c(=O)ccc2c1)C1CCCCC1 [Cilostamide]
Z Score [3]: 0.1756
Z score [11]: 0.176
Activity [7]: no

CCC1(c2ccc(N)cc2)CCC(=O)NC1=O (racemic) [(±)-p-Aminoglutethimide]
Activity: no
Z score [4]: −0.444

Br.CCCN1CCC2c3cc(O)ccc3CCC21 (racemic) [cis-(±)-8-OH-PBZI hydrobromide]
Z score [1]: −2.297
Activity [8]: no

COc1ccccc1NC(=O)Nc1nc(-c2cccnc2)nc2ccccc12 [VUF 5574]
Z Score: 0.5811
Z score [4]: 0.581
Activity [5]: no

C[C@](N)(Cc1ccc(O)c(O)c1)C(=O)O [L-alpha-Methyl DOPA]
Z Score: −0.897
Z score [1]: −0.897
Activity [10]: no

CC[C@@H]1Cc2cc(O)ccc2C2=C1c1ccc(O)cc1C[C@H]2CC
Z Score: −1.053
Z score [1]: −1.053
Activity [8]: no

NC1(C(=O)O)CCc2cc(C(=O)O)ccc21 (centres unmarked) [AIDA]
Z Score: 0.154
Z score [4]: 0.154
Activity [5]: no

N#CC(C#N)=Cc1ccc(O)c(O)c1 [Tyrphostin 23]
Z Score: −0.8396
Z score [1]: −0.840
Activity [2]: no

CC(=O)O[C@H]1C(=O)[C@@]2(C)[C@H]([C@H](OC(=O)c3ccccc3)[C@]3(O)C[C@H](OC(=O)[C@H](O)[C@@H](NC(=O)c4ccccc4)c4ccccc4)C(C)=C1C3(C)C)[C@]1(OC(C)=O)CO[C@@H]1C[C@@H]2O [Taxol]
Z Score [9]: −11.27
Z score [1]: −11.274
Activity [10]: yes

Br.CCCN(CCC)[C@@H]1CCc2ccc(O)cc2C1 [R-(+)-7-Hydroxy-DPAT hydrobromide]
Z Score: −2.59
Z score [1]: −2.590
Activity [8]: yes

Clc1ccc(N2CC3CCC(C2)N3)nn1 [DBO-83]
Z Score: −1.279
Z score [11]: −1.279
Activity [7]: no

O=C(O)CCc1nc(-c2ccccc2)c(-c2ccccc2)o1 [Oxaprozin]
Z Score [3]: 0.06616
Z score [1]: 0.066
Activity [2]: no

Cc1cc(N)c2ccccc2[n+]1CCCCCCCCCC[n+]1c(C)cc(N)c2ccccc21 [Dequalinium (29), Dequalinium, reference compound]
Z Score [9]: −9.54
Z score [1]: −9.540
Activity [8]: yes

CCCCS(=N)(=O)CCC(N)C(=O)O (racemic) [DL-Buthionine-[S,R]-sulfoximine]
Z Score [6]: −1.022
Z score [11]: −1.022
Activity [7]: no

COc1cc2nc(N3CCN(C(=O)C4COc5ccccc5O4)CC3)nc(N)c2cc1OC (centres unmarked) [Doxazosin mesylate]
Z Score [9]: −1.861
Z score [11]: −1.861
Activity [7]: no

C=CC(N)CCC(=O)O (racemic) [(±)-gamma-Vinyl GABA]
Z score [4]: −0.701
Activity [5]: no

O=C(O)c1cc2cc(F)ccc2[nH]1 [5-Fluoroindole-2-carboxylic acid]
Z Score: −0.007549
Z score: −0.008

Nc1ccc(CCNc2ncnc3c2ncn3[C@@H]2O[C@H](CO)[C@@H](O)[C@H]2O)cc1 [N6-2-(4-Aminophenyl)ethyladenosine]
Z Score (168 h, 3 µM): −1.323
Z score (168 h, 3 µM): −1.323
Activity [5]: no

Cl.Cl.Cl.Cl.NCCCNCCCCNCCCN [Spermine tetrahydrochloride]
Activity: no
Z Score: 0.3942
Z score: 0.394

Cc1cn([C@H]2C[C@H](N=[N+]=[N-])[C@@H](CO)O2)c(=O)[nH]c1=O [3′-Azido-3′-deoxythymidine]
Activity: yes
Z Score [9]: −5.023
Z score [1]: −5.023

CCCN(CCC)CCc1cccc2c1CC(=O)N2 [Ropinirole hydrochloride]
Activity: no
Z Score (168 h, 3 µM): −0.2552
Z score (168 h, 3 µM): −0.255

CCCCNC(=O)NS(=O)(=O)c1ccc(C)cc1 [Tolbutamide]
Activity: no
Z Score [6]: −0.3032
Z score [4]: −0.303

CCNC(=O)[C@H]1O[C@@H](n2cnc3c(N)nc(NCCc4ccc(CCC(=O)O)cc4)nc32)[C@H](O)[C@@H]1O [CGS-21680 hydrochloride]
Z Score (168 h, 3 µM): −1.225
Z score (168 h, 3 µM): −1.225
Activity [8]: no

CN(C)S(=O)(=O)c1ccc2c(c1)/C(=C/c1cc3c([nH]1)CCCC3)C(=O)N2 [SU 6656]
Z Score: 0.3165
Z score [1]: 0.316
Activity [2]: no

O=C(Nc1cccc(C(=O)Nc2ccc(S(=O)(=O)[O-])c3cc(S(=O)(=O)[O-])cc(S(=O)(=O)[O-])c23)c1)Nc1cccc(C(=O)Nc2ccc(S(=O)(=O)[O-])c3cc(S(=O)(=O)[O-])cc(S(=O)(=O)[O-])c23)c1.[Na+].[Na+].[Na+].[Na+].[Na+].[Na+] [NF 023]
Z Score: 1.115
Z score [1]: 1.115
Activity [10]: no

Nc1ccn([C@H]2CC[C@@H](CO)O2)c(=O)n1 [2′,3′-dideoxycytidine]
Z Score [9]: −1.367
Z score [1]: −1.367
Activity [8]: no

O=P1(N(CCCl)CCCl)NCCCO1 (centres unmarked) [Cyclophosphamide monohydrate]
Activity: no
Z Score: −0.9758
Z score: −0.976

CCCCCCCCC(=O)NCc1ccc(O)c(OC)c1 [N-Vanillylnonanamide]
Z Score [9]: −9.029
Z score [1]: −9.029
Activity [8]: yes

CC(=O)[C@H]1CC[C@H]2[C@@H]3CC[C@H]4C[C@H](O)CC[C@]4(C)[C@H]3CC[C@]12C [5alpha-Pregnan-3alpha-ol-20-one]
Z Score: 0.9335
Z score [1]: 0.934
Activity [2]: no

CN(C)CCC(c1ccccc1)c1ccccn1 (centres unmarked) [Pheniramine maleate]
Z Score [6]: −0.2062
Z score [1]: −0.206
Activity [8]: no

NC(=O)CC[C@H](N)C(=O)O [L-Glutamine]
Z Score (168 h, 3 µM): 0.8278
Z score (168 h, 3 µM): 0.828
Activity [7]: no

NC(CCCCCP(=O)(O)O)C(=O)O (racemic) [(±)-2-Amino-7-phospheneheptanoic acid]
Z score [4]: −1.020
Activity [5]: no

CN(C)[C@@H]1C(O)=C(C(N)=O)C(=O)[C@@]2(O)C(O)=C3C(=O)c4c(O)ccc(Cl)c4[C@@H](O)[C@H]3C[C@@H]12 [Demeclocycline hydrochloride]
Z Score [3]: −0.06452
Z score [11]: −0.065
Activity [7]: no

Cc1cccc(C)c1OCC(C)N.Cl (centres unmarked) [Mexiletene hydrochloride]
Z Score: −1.259
Z score [1]: −1.259
Activity [10]: no

CCOC(=O)[N-]c1cn(N2CCOCC2)n[o+]1 [Molsidomine]
Z Score (LOPAC library screen at 3 μM, MTT, secondary neurosphere cultures, screened in singlets): 1.567
Z score [1]: 1.567
Activity [10]: no

N#CC(C#N)=C(N)/C(C#N)=C/c1cc(O)c(O)c(O)c1 [Tyrphostin 51]
Z Score: −0.9177
Z score [4]: −0.918
Activity [5]: no

CNCC[C@@H](Oc1ccccc1C)c1ccccc1 [Tomoxetine]
Activity: no
Z Score [3]: 0.1672
Z score [4]: 0.167

C[N+](C)(C)CC#CCN1CCCC1=O [Oxotremorine methiodide]
Z Score: −0.7002
Z score [1]: −0.700
Activity [2]: no

O=C(O)c1nn(Cc2ccc(Cl)cc2Cl)c2ccccc12 [Lonidamine]
Z Score [3]: 0.4358
Z score [1]: 0.436
Activity [7]: no

CC(=O)Oc1ccccc1C(=O)O [Acetylsalicylic acid]
Z Score [6]: −0.4812

Cc1ccc(N(CC2=NCCN2)c2cccc(O)c2)cc1 [Phentolamine mesylate]
Z Score (168 h, 3 µM): −0.3191
Z score (168 h, 3 µM): −0.319
Activity [2]: no
